Source: patent US20090197853A1, “METHODS AND COMPOSITIONS OF TREATING CANCER” (priority 2005, published 2009)

System: Ramos cells
Assay: Gene expression profiling on Human Genome U133 Plus 2.0 Arrays, Ramos cultures
Type: cell-based
Settings: 4 hours
Method: Methods: Gene Expression Profiling—MGd (10 μM), Zn(OAc)2 (25 or 50 μM, the combinations, or control (5% mannitol) solution were added to Ramos cultures. Each treatment was performed in triplicate. After 4 hours of incubation, all cultures were washed twice with 0.5% BSA in HBSS and total RNA was isolated and subjected to analysis on Human Genome U133 Plus 2.0 Arrays (Affymetrix, Santa Clara, Calif.). Microarray Suite version 5.0 software (Affymetrix) was used to generate raw gene expression scores and normalize the relative hybridization signal from each experiment. All gene expression scores were set to a minimum value of fifty in order to minimize noise associated with less robust measurements of rare transcripts. Both the parametric Student's t-test and the permutation-based significance analysis of microarrays (SAM) were used to determine genes differentially expressed in treatment versus control groups.

CC(=O)[O-].CC(=O)[O-].CCc1c(CC)c2cc3nc(cnc4cc(OCCOCCOCCOC)c(OCCOCCOCCOC)cc4ncc4nc(cc1[n-]2)C(CCCO)=C4C)C(C)=C3CCCO.O.[Gd+3] [MGd, Motexafin gadolinium]
MTF-1 regulated genes incl. metallothionein and zinc transporter family transcripts: up-regulation of MTF-1 regulated genes
